Data on three compounds can be found in publication PMC8699021, “Which Properties Allow Ligands to Open and Bind to the Transient Binding Pocket of Human Aldose Reductase?” (Biomolecules, 2021).

In test [1] the target is T1, ALR-2 (human aldose reductase, EC 1.1.1.21) (Homo sapiens, UniProt P15121).
T1 construct: gene AKR1B1; one molecule per asymmetric unit
Briefly: ITC direct titration; X-ray. The class given is binding. From the text: ITC direct titration; X-ray on ALR-2 (human aldose reductase, EC 1.1.1.21)

Test [2] has as its target T1, ALR-2 (human aldose reductase, EC 1.1.1.21). Briefly: ITC direct titration. The class given is binding. From the text:
ITC direct titration on ALR-2 (human aldose reductase, EC 1.1.1.21)

Regarding `C[S+]([O-])c1cccc(CNC(=O)c2ccc(F)cc2OCC(=O)O)c1` (stereo not drawn) [compound 3, 2-(5-fluoro-2-((3-(methylsulfinyl)benzyl)carbamoyl)phenoxy)acetic acid], binding in test [1] was put at a Kd of 5 ± 0.6 µM.

Regarding `O=C(O)COc1cc(F)ccc1C(=O)NCc1cccc(B(O)O)c1` [compound 4, 2-(2-((3-boronobenzyl)carbamoyl)-5-fluorophenoxy) acetic acid], the Kd (as a rule, the concentration at which binding is half-saturated) in test [1] amounted to 2.3 ± 0.3 µM.

For `O=C(O)COc1cc(F)ccc1C(=O)NCc1nc2ccccc2s1` [compound 9, inhibitor 9], the Kd in test [2] stood at 420 ± 80 nM.
